Reference: BindingDB's records for doi:10.1016/j.bmcl.2010.03.073 (Methylgene, 2010)

Tests used:
[1] = Inhibition of c-Met-mediated scattering in HGF-stimulated human DU145 cells
[2] = Inhibition of c-Met-mediated cell migration of human A549 cells by would healing

An IC50 [1] of 2000 nM and an IC50 [2] of 400 nM were found for `Cn1cnc(-c2cc3nccc(Oc4ccc(NC(=O)c5cnn(-c6ccccc6)c5C(F)(F)F)cc4F)c3s2)c1` [N-(3-fluoro-4-(2-(1-methyl-1H-imidazol-4-yl)thieno[3,2-b]pyridin-7-yloxy)phenyl)-1-phenyl-5-(trifluoromethyl)-1H-pyrazole-4-carboxamide] in this work.
